Test system: patients with advanced and/or metastatic solid tumours
Test: Clinical trial of Volasertib in combination with Cisplatin (arm A) or Carboplatin (arm B)
Type: in vivo
Settings: for maximum tolerated dose for volasertib: single 2-hour infusion on day 1 every 3 weeks
From the text: Sequential cohorts of three to six patients (pts) received a single 2-hour infusion of Volasertib (V) in combination with Cisplatin (Cis) (arm A) or Carboplatin (Ca) (arm B), on day 1 every 3 weeks. Cis and Ca were given for up to six cycles (Cy), V was continued until disease progression or unacceptable toxicity.

CC[C@@H]1C(=O)N(C)c2cnc(Nc3ccc(C(=O)N[C@H]4CC[C@H](N5CCN(CC6CC6)CC5)CC4)cc3OC)nc2N1C(C)C [Volasertib, N-[trans-4-[4-(cyclopropylmethyl)-1-piperazinyl]cyclohexyl]-4-[[(7R)-7-ethyl-5,6,7,8-tetrahydro-5-methyl-8-(1-methylethyl)-6-oxo-2-pteridinyl]amino]-3-methoxy-benzamide]
partial responses (PR) observed (arm A (with Cisplatin), CHOP-resistant follicular dendritic reticulum cell sarcoma, dose levels A2, A4): two | partial responses (PR) observed (arm A (with Cisplatin), pretreated lung cancer, dose level A5, PR yet to be confirmed): one | partial responses (PR) observed (arm B (with Carboplatin), heavily-pretreated head and neck carcinoma, dose level B4): one | partial responses (PR) observed (both arms together (combination with Cisplatin or Carboplatin), 46 patients): Four | side effects (myelosuppression) on combination (human, in vivo): without potentiation of those side effects | maximum tolerated dose for volasertib (in combination with carboplatin): ≥ 300 mg | maximum tolerated dose for volasertib (in combination with cisplatin): ≥ 300 mg

— patent publication US9370535B2, “Method for treatment of advanced solid tumors” (BOEHRINGER INGELHEIM INTERNATIONAL GMBH, priority 2011, dated 2016)
